Data published in US12053441B2, “Formulations for improving the delivery of hydrophobic agents” (THE ROYAL INSTITUTION FOR THE ADVANCEMENT OF LEARNING / …, priority 2018, dated 2024).

Assays:
[1] = Description: Solubilization studies. In order to link the surfactant properties of McC1 and its stimulating impact on UQ10 uptake, the solubilization characteristics of McC1 on UQ10 have been determined. First, solubilization test was performed by overnight shaking of a mixture of UQ10 and McC1 in water.
Additional solubilization tests were performed using sonication. Excess amount of UQ10 was mixed with McC1 by sonication for 2 min in water.
Like caspofungin/McC1, surfactin is a cyclic lipopeptide. It is produced from various strains of Bacillus subtilis. Structurally it consists of a peptide chain formed by seven amino acids linked to a β-hydroxyl fatty acid via a lactone bond. It is known for its exceptional surfactant power. […] Then, solubilization test was performed by overnight shaking of a mixture of UQ10 and surfactin in water. The mixture were subjected to brief centrifugation to separate undissolved UQ10 before absorbance of the resultant clear supernatant at 275 nm was measured spectrophotometrically.
Several other surfactants were tested for their ability to solubilize UQ. Briefly, excess amount of UQ10 was mixed with water solution of the tested surfactants using sonication. The resultant suspensions were then filtered through a 0.45 μm syringe filter to remove undissolved UQ10.

Pdss2/Mclk1 DKO cells [2] = assay: Viability in glucose-free galactose-containing medium (resazurin reduction assay); assay type: cell-based, mouse
Description: Tissue culture and viability assays. […] Cell viability was determined by resazurin (Sigma Cat No R7017) reduction assay or crystal violet staining following standard procedures.
(§1) The resazurin cell viability assay. Briefly, resazurin was added directly to plates at 1/10 the volume of glucose culture medium. Viable cells with active metabolism can reduce resazurin into resorufin which causes a colour change from blue to pink. After a 2 hr incubation, plates were read on a plate reader (Tecan) to record absorbance at 570 nm and 600 nm. The cell viability was scored as a percentage relative to the signal from untreated glucose-grown wells. Consequently, each screened compound may be described by its effect (no, partial or full rescue) on survival of the KO cells in galactose medium.
The screen also uses cells lacking UQ biosynthesis (e.g., DKO cells) and its protocol is essentially the same as the galactose-only screen except that in step 2, a minimal amount of UQ10 is added into the galactose screening media at a concentration at which the added UQ10 is insufficient by itself to support survival.

Pdss2/Mclk1 DKO cells [3] = assay: Oxygen consumption rate (OCR) by Seahorse XF analyzer; assay type: cell-based, mouse
Description: Measurement of oxygen consumption by Seaborse XF analyzer. Cells were seeded in XF v7 24-well plates (Seahorse Bioscience) at ˜40,000 cells/well for 24 hr. Prior to the measurements, cell medium was replaced with Seahorse XF base medium supplemented with 5.5 mM glucose (Sigma Cat No G8769), 2 mM Glutamax (Thermo Fisher Cat No 35050061) and 1 mM sodium pyruvate and allowed to equilibrate for 1 hour at 37° C. Oxygen consumption was measured first under baseline condition, followed by subsequent addition of 1 μg/ml oligomycin (Sigma Cat No 04876), 0.8 μM FCCP (Sigma Cat No C2920) and a combination of 1 μM rotenone (Sigma Cat No R8875) and 5 μM antimycin A (Sigma Cat No A8674) to assess the basal and maximal mitochondrial respiration rates. Four baseline measurements were recorded before the consecutive addition of the above-mentioned compounds, and three response measurements were taken after the addition of each compound. Results were finally normalized to protein content determined using the Bradford reagent (Bio-Rad). For experiments that involved culturing cells in the presence of lipoprotein-deficient serum (LPDS), cells were grown in culture medium supplemented with LPDS (Sigma S5394) for 1 week before OCR was measured using a Seahorse XF-24 extracellular flux analyzer as described above.

Pdss2/Mclk1 DKO MEFs = assay: Cellular UQ10 levels (quinone quantification by HPLC); assay type: cell-based, mouse
Description: (§2) Quantification of quinones. Quinone content was detected and quantified by HPLC as previously described. […] After centrifugation for 5 min at 8,000×g, the hexane layer was collected and evaporated in a vacuum centrifuge. The quinone residue was then dissolved in ethanol and stored at −20° C. until HPLC analysis. The HPLC analysis was performed on a reverse phase C18 column (25.0×0.46 cm, 5 μm, Highchrom) using UV detection at 275 nm (Beckman System Gold). The mobile phase was methanol/ethanol (70:30 v/v) and isocratic elution was used at a flow rate of 1.8 ml/min.

wildtype MEFs = assay: as above; assay type: cell-based, mouse
Description: as §2

[4] = tested on: mitochondria of Pdss2/Mclk1 DKO MEFs; assay: UQ levels in mitochondrial extracts; assay type: cell-based, mouse; settings: in combination with UQ10, vs UQ10 alone
From the text: (§3) FIGS. 7A to 7D present exemplary data showing that McC1 is capable of increasing the uptake of exogenous UQ into cells and mitochondria. (A) Bar chart showing change of UQ10 levels (as measured in ng/μg of protein) in Pdss2/Mclk1 DKO MEFs after treatment with UQ10, McC1 alone, or UQ10 and McC1 in combination. **p<0.01, ***p<0.001 (one-way ANOVA). (B) Bar charts presenting exemplary data showing changes of UQ levels in wildtype MEFs after treatment with UQ10, McC1 alone, or both in combination. Results are shown as cellular UQ10 levels (as provided in ng/μg of protein, left panel) or UQ9 levels (as provided in ng/μg of protein, right panel) in untreated cells, after treatment with 12.5 μM of McC1, after treatment with 2.5 μM of UQ10, or after co-treatment UQ10 and McC1. Results are mean±SEM (n=3). ****p<0.0001 (one-way ANOVA). (C) Bar chart presenting exemplary data showing changes of UQ10 and UQ9 levels in mitochondrial extracts from wildtype MEFs after treatment with UQ10 alone, or in combination with McC1. Results are shown as UQ9 and UQ10 levels in ng/μg of protein. Results are mean±SEM (n=3). ****p<0.0001 (student's t-test). (D) Bar chart presenting exemplary data showing changes of UQ10 level in mitochondrial extracts from Pdss2/Mclk1 DKO MEFs after treatment with UQ10 alone, or in combination with McC1. Results are shown as UQ10 levels (as provided in ng/μg of protein) in untreated DKO cells, after treatment with 2.5 μM of UQ10, or after co-treatment 2.5 μM of UQ10 and 12.5 μM of McC1. ND: Not Detectable. Results are mean±SEM (n=3). ****p<0.0001 (one-way ANOVA).
as §2

[5] = tested on: mitochondria of wild-type MEFs; assay: UQ levels in mitochondrial extracts; assay type: cell-based, mouse; settings: in combination with UQ10, vs UQ10 alone
From the text: as §3, §2

[6] = Drop collapse assay (surfactant activity); assay type: physicochemical
Description: Drop collapse assay is a simple detection method of surface active agents. It relies on the capacity of surfactants to destabilize the liquid droplets on an oily surface. The drop-collapsing ability of McC1 along with other known potent surfactants was characterized. For each, 40 ul of compound solution in water was pipetted onto a hydrophobic Parafilm surface and the diameter of the drops was measured 1 min later using a ruler.

[7] = tested on: mouse embryonic fibroblasts (MEFs); assay: Effect of PTX/McC1 micelles on cell growth and survival (resazurin reduction assay); assay type: cell-based; settings: 2 to 6 days exposure (FIG. 26B)
Description: To evaluate the antiproliferative activity of PTX/McC1 micelles, we seeded exponentially growing mouse embryonic fibroblasts (MEFs) into 48-well plates, exposed them to PTX/McC1 micelles for 2 to 6 days, and determined the treatment effect on cell growth and survival by comparing the numbers of variable cells before and after the treatment.
Cells were allowed to attach overnight and then the PTX/McC1 solution was added into the culture media to obtain the desired concentrations. After 2 days' treatment, the standard resazurin reduction assay was used to evaluate cell growth and survival.

cells = assay: Cellular UQ measurements after treatment with micellar UQ10 solutions (FIG. 22); assay type: cell-based; settings: UQ10 solution prepared with the surfactant, 6 μM UQ10, 1-day
From the text: UQ levels are expressed as ng per mg of protein (mean±SEM). Each bar represents the average of 2 to 3 independent measurements. […] ND: not detected. #p<0.0001 (vs. untreated controls; two-way ANOVA followed by Dunnett's multiple comparison test).

Mclk1 KO cells = assay: Viability in glucose-free galactose-containing medium (resazurin reduction assay); assay type: cell-based, mouse
Description: Tissue culture and viability assays. […] To score growth and viability in galactose, cells were first grown in high glucose DMEM medium to confluency and then switched to glucose-free DMEM media (Thermo Fisher Cat No 26400036) supplemented with 10 mM galactose (Sigma Cat No G5388), 1 mM sodium pyruvate (Thermo Fisher Cat No 11360070), 10% dialyzed FBS (Thermo Fisher Cat No 26400036) and 1% antibiotic-antimycotic solution. Cell viability was determined by resazurin (Sigma Cat No R7017) reduction assay or crystal violet staining following standard procedures.
The screen uses cells lacking UQ (e.g., Mclk1 KO cells) and consists of three key steps: • 1) Day 0: preparation of Mclk1 KO cells in 96-well plates in standard (glucose-containing) culture medium. • 2) Day 1: changing to glucose-free galactose-containing medium and adding compounds to be screened at a concentration of approximately 10 μM. • 3) Day 4 to 6: following 3 to 5 days of incubation with the compound to be screened, media were removed and cell viability was assayed by resazurin reduction assay.
as §1

human Hela cells = assay: Cellular UQ10 levels (quinone quantification by HPLC); assay type: cell-based; settings: 1 hour treatment, human cells (FIG. 15)
From the text: (A) UQ levels in wild-type MEFs after treatment with McC1-solubilized form of UQ10. (B) UQ levels in human Hela cells after treatment with McC1-solubilized form of UQ10. Results are shown as the levels of UQ9 (white bars, measured as ng/mg of protein) or UQ10 (black bars, measured as ng/mg of protein) in control conditions (+None), after treatment with a formulation containing McC1-solubilized form of UQ10, or in the presence of UQ10 only (+UQ10). For the 2 treatment conditions in A, the final UQ10 concentrations in the media were the same—2.5 μM. In B, the final UQ10 concentrations in the media were 8 μM for the two treatment conditions. Values are mean±SEM (n=2). ****p<0.0001 (one-way ANOVA).
as §2

[8] = Solubilization of paclitaxel (PTX) in water; settings: FIG. 25
Description: (A) Bar graph showing a concentration of soluble PTX in 4 mM McC1 solution. After mixing PTX and McC1 solution, the undissolved residues were removed by filtration through a 0.22 μm pore-size membrane. For determination of the PTX concentration, absorbance at 230 nm was measured and compared to a standard curve generated for known concentrations of PTX in pure methanol.

[9] = Solubilization of curcumin in water; assay type: physicochemical
From the text: It is important to note that in contrast with the other surfactants tested, McC1 is non-toxic and can be used in intravenous injection.

[10] = in combination with UQ10, vs UQ10 alone

CC[C@H](C)C[C@H](C)CCCCCCCCC(=O)N[C@H]1C[C@@H](O)[C@@H](NCCN)NC(=O)[C@@H]2[C@@H](O)CCN2C(=O)[C@H]([C@H](O)CCN)NC(=O)[C@H]([C@H](O)[C@@H](O)c2ccc(O)cc2)NC(=O)[C@@H]2C[C@@H](O)CN2C(=O)[C@H]([C@@H](C)O)NC1=O [McC1, Caspofungin]
increase in aqueous solubility of UQ10 [1]: more than 1,200,000 fold
water solubility of UQ10 in the presence of the compound [1]: greatly increased
survival of DKO cells in galactose medium (Pdss2/Mclk1 DKO cells [2]; compound by itself, no UQ10 added): no effect
survival of DKO cells in galactose medium (Pdss2/Mclk1 DKO cells [2]; in the presence of a minimal amount of UQ10): able to rescue the mutant cells from death
mitochondrial respiration (OCR) compared with UQ10 treatment alone (Pdss2/Mclk1 DKO cells [3]; co-treatment with UQ10): greater increase of mitochondrial respiration
intracellular concentration of UQ (Pdss2/Mclk1 DKO MEFs; compound used alone): no effect
cellular uptake of exogenous UQ10 (Pdss2/Mclk1 DKO MEFs; [10]): increased uptake of exogenous UQ10 into cells
intracellular concentration of UQ (wildtype MEFs; compound used alone): no effect
cellular uptake of exogenous UQ10 (wildtype MEFs; [10]): increased uptake of exogenous UQ10 into cells
uptake of exogenous UQ10 into mitochondria [4]: significantly increased uptake of exogenous UQ10 into mitochondria
uptake of exogenous UQ10 into mitochondria [5]: significantly increased uptake of exogenous UQ10 into mitochondria
surfactant (drop collapse) activity [6]: moderate surfactant activity
effect on cell growth and survival [7]: no observable toxicity

Benzalkonium chloride [BAC]
cellular uptake of UQ10 compared to adding UQ10 alone (cells): increased cellular uptake of UQ10

COC1=C(OC)C(=O)C(C/C=C(\C)CC/C=C(\C)CC/C=C(\C)CC/C=C(\C)CC/C=C(\C)CC/C=C(\C)CC/C=C(\C)CC/C=C(\C)CC/C=C(\C)CCC=C(C)C)=C(C)C1=O [UQ10, ubiquinone-10]
soluble UQ10 in the water-only control [1]: no detectable soluble UQ10
rescue from galactose-induced cell death by UQ supplementation (Pdss2/Mclk1 DKO cells [2]; if provided at a sufficient amount): sufficient to rescue them from galactose-induced cell death
survival of Mclk1 KO cells in galactose medium (Mclk1 KO cells; UQ10 0.5 μM (FIG. 3C)): little effect
survival of Mclk1 KO cells in galactose medium (Mclk1 KO cells; UQ10 10 μM (FIG. 3C)): almost full rescue
rates of mitochondrial respiration (Pdss2/Mclk1 DKO cells [3]; UQ10 at sufficient doses, Mclk1 SKO and Pdss2/Mclk1 DKO cells): increases rates of mitochondrial respiration
cellular UQ10 levels (wildtype MEFs; 1 hour treatment, mouse cells (FIG. 15)): no effect on intracellular UQ10 levels
cellular UQ10 levels (human Hela cells): no effect on intracellular UQ10 levels

CCCCCCCCCCCCCC[N+](C)(C)C.[Br-] [TTAB, Tetradecyl trimethyl ammonium bromide]
cellular uptake of UQ10 compared to adding UQ10 alone (cells): increased cellular uptake of UQ10

CC(=O)O[C@H]1C(=O)[C@@]2(C)[C@H]([C@H](OC(=O)c3ccccc3)[C@]3(O)C[C@H](OC(=O)[C@H](O)[C@@H](NC(=O)c4ccccc4)c4ccccc4)C(C)=C1C3(C)C)[C@]1(OC(C)=O)CO[C@@H]1C[C@@H]2O [PTX, Paclitaxel]
solubility of PTX in water-only control [8]: not soluble in water

COc1cc(/C=C/C(=O)CC(=O)/C=C/c2ccc(O)c(OC)c2)ccc1O [curcumin]
solubility of free curcumin in water [9]: very low solubility in water
